# Laboratory results published in patent US8859022B2, “Antihypertensive agents” (Bourbon Corporation, priority 2011, dated 2014).
# Read-outs that look alike come from different tables or passages of the source.
# Assays:
# [1] = Apple, literature values; cited from earlier work
# [2] = Literature oral absorption of apple procyanidins (J. Agric. Food Chem., 54, 884-892, 2006); format: in vivo, rats; conditions: worked out from literature values, A in mg/kg
# Description: Studies on oral absorbability of various kinds of proanthocyanidins have reported that oligomers with a low degree of polymerization are efficiently orally absorbed (see R. R. Holt, S. A. Lazarus, M. C. Sullards, Q. Y. Zhu, D. D. Schramm, J. F. Hammerstone, C. G. Fraga, H. H. Schmitz and C. L. Keen, Procyanidin dimer B2 [epicatechin-(4β-8)-epicatechin] in human plasma after the consumption of a flavanol-rich cocoa. Am. J. Clin. Nutr. 2002, 76, p. 798-804. T. Shoji, S. Masumoto, N. Moriichi, H. Akiyama, T. Kanda, Y. Ohtake, Y. Goda. Apple procyanidin oligomers absorption in rats after oral administration: Analysis of procyanidins in plasma using the porter method and High-Performance Liquid Chromatography/Tandem Mass Spectrometry. J. Agric. Food Chem. 2006, 54, p. 884-892).
# [3] = Oral absorbability evaluation test of proanthocyanidins extracted from Boysenberry seed (LC/MS/MS of blood plasma); format: in vivo, Wistar rats; conditions: Boysenberry seed (present invention); for B/A (blood concentration after 2 hours / administration quantity): A in mg/kg, B in μg/mL; for Blood concentration after 2 hours B: partitioned concentrate of seed extract 1000 mg/kg oral, Wistar rats, plasma
# Protocol: The test animal used was Wistar rats (males, aged 9 weeks, with initial weight of 190 to 210 g, obtained from Japan SLC, Inc.). After fasting for 12 hours, the Wister rats were forcefully orally administered each 1000 mg/kg of the partitioned concentrate of seed extract or the partitioned concentrate of thermally-treated seed extract obtained in Example 1. Then, every 1, 2, 4, and 6 hours after the administration, the rats were killed to collect the whole blood. Each whole blood was centrifuged for 10 minutes at 4° C. at 2,000×g to obtain blood plasma as a supernatant. To 1 mL of each blood plasma were added 30 μL of 50% formic acid and 100 μL of 10 mM ascorbic acid solution to mix together, and to 1 mL of the mixed blood plasma solution were added 50 μL of (1 μg of) a catechol solution as an internal standard reagent and 30 μL of phosphoric acid to prepare each sample for analysis. Regarding the samples, measurements of a procyanidin dimer, a propelargonidin dimer, a procyanidin trimer, and a propelargonidin trimer were carried out at molecular weights of 577/289, 561/289, 865/289, and 849/289, using a liquid chromatography-mass spectrometry (LC/MS) (Shimadzu Prominence UFLC manufactured by Shimadzu Corp.; with ODS column; gradient elution with formic acid, methanol, and water) and MS/MS (API 3200 manufactured by Applied Biosystems Co. Ltd., negative-ion mode) to determine the quantities of the proanthocyanidins in the blood plasma. […] Additionally, FIG. 5 and Table 3 show LC/MS charts of the measurements of proanthocyanidin dimer and trimer components in the blood plasma after 2 hours of the administration of the partitioned concentrate of seed extract.
SMILES,B/A (blood concentration after 2 hours / administration quantity) [2],B/A (blood concentration after 2 hours / administration quantity) [3],Blood concentration after 2 hours B [3],Blood concentration after 2 hours B [1]
Oc1cc(O)c2c(c1)O[C@H](c1ccc(O)c(O)c1)[C@H](O)[C@H]2c1c(O)cc(O)c2c1O[C@H](c1ccc(O)c(O)c1)[C@H](O)[C@H]2c1c(O)cc(O)c2c1O[C@H](c1ccc(O)c(O)c1)[C@H](O)C2 [PC trimer C1],1.9 (×10^−6) (kg/ml),25.0 (×10^−6) (kg/ml),200 ng/mL,120 ng/mL
Oc1cc(O)c2c(c1)O[C@H](c1ccc(O)c(O)c1)[C@H](O)[C@H]2c1c(O)cc(O)c2c1O[C@H](c1ccc(O)c(O)c1)[C@@H](O)C2 [PC dimer B1],2.4 (×10^−6) (kg/ml),–,–,120 ng/mL
"Oc1cc(O)c2c(c1)O[C@H](c1ccc(O)c(O)c1)[C@H](O)[C@H]2c1c(O)cc(O)c2c1O[C@H](c1ccc(O)c(O)c1)[C@H](O)C2 [PC dimer B2, epicatechin-(4β-8)-epicatechin]",2.5 (×10^−6) (kg/ml),–,–,230 ng/mL

# Continued, in another order:
B/A (blood concentration after 2 hours / administration quantity) [2],B/A (blood concentration after 2 hours / administration quantity) [3],Blood concentration after 2 hours B [3],SMILES,Blood concentration after 2 hours B [1]
–,32.9 (×10^−6) (kg/ml),560 ng/mL,"Oc1cc(O)c2c(c1)O[C@H](c1ccc(O)c(O)c1)[C@@H](O)[C@@H]2c1c(O)cc(O)c2c1O[C@H](c1ccc(O)c(O)c1)[C@H](O)C2 [PC dimer B4, Procyanidin B4]",–
–,30.0 (×10^−6) (kg/ml),120 ng/mL,"Oc1cc(O)c2c(c1)O[C@H](c1ccc(O)c(O)c1)[C@@H](O)[C@@H]2c1c(O)cc(O)c2c1O[C@H](c1ccc(O)c(O)c1)[C@@H](O)C2 [PC dimer B3, Procyanidin B3]",–
